Source: US9814752B2, “Agonists of guanylate cyclase useful for the treatment of hypercholesterolemia, atherosclerosis, coronary heart disease, gallstone, obesity and other cardiovascular diseases” (SYNERGY PHARMACEUTICALS, INC., priority 2007, dated 2017)
Positions of bridges follow the written chain, without caps; N, C: chain ends. Residues, ends and D or L forms follow the SMILES beside them.

How the values were obtained:
GC-C receptors = target: T1, GC-C receptors (Homo sapiens, UniProt P25092); test: Cyclic GMP stimulation assay in CaCo-2 monolayers (cGMP ELISA); type: cell-based; details: for effect of PDE inhibitor on stimulation of cGMP production by SP-304: PDE inhibitor in combination with SP-304, 30 minutes
T1 construct: host or cells: CaCo-2 human colon carcinoma cells, differentiated monolayers grown for 16 days
Experimental: (§1) CaCo-2, human colon carcinoma cells, were obtained from American Type Culture Collection (ATCC) and cultured in DMEM medium containing 10% fetal bovine serum, 1% penicillin-streptomycin, 2 mM L-glutamine, 1% non-essential-amino acids. Cells were fed fresh medium every third day and grown for 16-21 days to form completely differentiated monolayer. Fully differentiated CaCo-2 cells are known to express high density of GC-C receptors.
Biological activity of the GCRA peptides was assayed as previously reported (5). Briefly, 16 days grown monolayers of CaCo-2 cells in 24-well plates were washed twice with 250 μl of DMEM containing 50 mM HEPES (pH 7.4), pre-incubated at 37° C. for 10 min with 250 μl of DMEM containing 50 mM HEPES (pH 7.4) and 1 mM isobutylmethylxanthine (IBMX), followed by incubation with GCRA peptides (0.1 nM to 10 μM) for 30 min. The medium was aspirated, and the reaction was terminated by the addition of 3% perchloric acid. Following centrifugation, and neutralization with 0.1 N NaOH, the supernatant was used directly for measurements of cGMP using an ELISA kit (Caymen Chemical, Ann Arbor, Mich.)
Monolayers were treated […] of serum free DMEM for 30 minutes with either SP-304 alone or in combination with phosphodiesterase inhibitors such as, 3-isobutyl-1-methylxanthine (IBMX), sulindac sulfone (SS) and zaprinast (ZAP). After the incubation, monolayer were lysed with 250 μL of 3% perchloric acid. The lysate was neutralized with 0.1 N NaOH and used for ELISA to determine the concentration of cGMP. The assay procedure was essentially the same as described (5). […] Since CaCo-2 cells overexpress phosphodiesterases (PDE), GC-C agonists are used in combination with PDE inhibitors to measure the actual stimulatory effect of GC-C agonists.

CaCo-2 cells = test: ^3H-taurocholate (bile acid) absorption by CaCo-2 monolayer; type: cell-based, human; details: for absorption of ^3H-taurocholate (kinetics, FIG. 4): 16-day CaCo-2 monolayers, incubation up to 60 minutes, average of three determinations; for absorption of ^3H-taurocholate (kinetics, FIG. 4) / absorption of ^3H-taurocholate (FIG. 5): 30 min pre-incubation; for absorption of ^3H-taurocholate (FIG. 5): 20-day CaCo-2 cells, 60 minutes with 1 uCi ^3H-taurocholate, quadruplets
Experimental: as §1
Phosphatidyl choline was dissolved in ethanol to make 50 mM stock solution. Calculated volume of the stock solution of phosphatidyl choline was mixed with 3H-taurocholate in a plastic tube and dried under argon gas at 80° C. The dried material was dissolved in transport buffer to get the final concentration of phosphatidyl choline (0.5 mM) and of 3H-taurocholate 10 μCi/mL.
CaCo-2 cells were grown in 24-well plates for 16 days to allow complete monolayer formation and cell differentiation. Completely differentiated monolayers were then pre-incubated with 250 μL of the transport buffer (HEPES 25 mM, NaCl 120 mM, KCl 5.4 mM, CaCl2 1.8 mM and MgSO4, pH 7.5) containing either SP-304 alone or in combination with PDE inhibitors such as IBMX, SS and ZAP. The monolayers were pre-incubated with transport buffer containing either of the following: vehicle (control), 1 mM 8-bromo-cGMP, 500 μM SS, 500 μM ZAP, 1 μM SP-304, 0.1 μM SP-304+500 μM SS and 1 μM SP-304+500 μM ZAP. After the indicated pre-incubation time, 50 μL, of ^3H-taurocholate (1 μCi) cocktail was added and cells were incubated for an additional 60 minutes, washed three times with ice cold PBS. Cells were lysed with 0.5 N NaOH for 4 hours and radioactivity in the lysate was counted in a scintillation counter.
16-day grown monolayers of CaCo-2 cells in 24-well plates were pre-incubated with transport buffer containing the compounds as indicated in the figure for 30 minutes. After the pre-incubation, 1 μCi of ^3H-taurocholate cocktail was added in each well and cells were further incubated for 60 minutes. Cells were washed three times with ice cold PBS and lysed with 0.5 N NaOH and lysates were counted for radioactivity in a scintillation counter. Results are expressed as an average of three determinations. Results on the x-axis were plotted in logarithmic scale.
After the pre-incubation, 1 μCi of ^3H-taurocholate cocktail was added in each well and cells were further incubated for 60 minutes. Cells were washed three times with ice cold PBS and lysed with 0.5 N NaOH and lysates were counted for radioactivity in a scintillation counter. This experiment was run in quadruplets and results are expressed as mean±SD.
The procedure used in this experiment was essentially the same except that a lower concentration of ZAP (250 μM) in combination experiments with SP-304.

T1 sequence (P25092 24-1073): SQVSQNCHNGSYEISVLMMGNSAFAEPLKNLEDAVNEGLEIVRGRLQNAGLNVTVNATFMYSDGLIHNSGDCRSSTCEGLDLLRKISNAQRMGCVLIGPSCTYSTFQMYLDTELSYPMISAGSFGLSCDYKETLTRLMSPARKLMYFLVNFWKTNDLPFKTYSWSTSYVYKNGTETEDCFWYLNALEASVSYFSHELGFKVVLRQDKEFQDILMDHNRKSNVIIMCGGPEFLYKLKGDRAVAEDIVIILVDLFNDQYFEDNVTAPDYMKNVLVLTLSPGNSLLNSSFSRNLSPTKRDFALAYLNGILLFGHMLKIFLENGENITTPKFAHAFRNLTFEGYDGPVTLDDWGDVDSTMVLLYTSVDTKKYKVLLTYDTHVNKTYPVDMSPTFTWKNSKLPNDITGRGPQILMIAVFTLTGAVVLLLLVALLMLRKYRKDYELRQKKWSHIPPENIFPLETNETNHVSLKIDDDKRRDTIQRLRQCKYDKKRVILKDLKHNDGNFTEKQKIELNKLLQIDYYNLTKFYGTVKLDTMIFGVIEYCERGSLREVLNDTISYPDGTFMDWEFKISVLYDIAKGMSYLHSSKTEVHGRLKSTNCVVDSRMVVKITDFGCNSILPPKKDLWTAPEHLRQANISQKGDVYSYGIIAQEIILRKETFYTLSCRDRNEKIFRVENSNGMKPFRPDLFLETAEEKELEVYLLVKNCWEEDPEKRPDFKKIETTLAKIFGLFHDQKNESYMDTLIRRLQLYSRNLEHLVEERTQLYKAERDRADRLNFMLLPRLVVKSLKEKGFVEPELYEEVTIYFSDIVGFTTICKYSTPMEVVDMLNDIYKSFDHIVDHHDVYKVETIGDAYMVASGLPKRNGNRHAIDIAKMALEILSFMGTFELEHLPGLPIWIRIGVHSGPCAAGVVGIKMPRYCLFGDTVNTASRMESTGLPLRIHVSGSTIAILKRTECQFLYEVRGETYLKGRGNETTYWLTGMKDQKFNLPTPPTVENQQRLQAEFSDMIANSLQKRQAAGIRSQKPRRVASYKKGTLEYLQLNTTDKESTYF

Row | Structure (SMILES) | effect of PDE inhibitor on stimulation of cGMP production by SP-304 (GC-C receptors) | absorption of ^3H-taurocholate (kinetics, FIG. 4) (CaCo-2 cells) | absorption of ^3H-taurocholate (FIG. 5) (CaCo-2 cells) | other results
1 | CC(C)Cn1c(=O)n(C)c(=O)c2[nH]cnc21 [IBMX, 3-isobutyl-1-methylxanthine] | synergistic effects |  |  | 
2 | Nc1nc2c(nc(Br)n2[C@@H]2O[C@@H]3COP(=O)(O)O[C@H]3[C@H]2O)c(=O)[nH]1 [8-Br-cGMP, 8-bromo-cGMP] |  | inhibited | inhibited | 
3 | CC(C)C[C@H](NC(=O)[C@@H]1CSSC[C@@H]2NC(=O)[C@H](CC(C)C)NC(=O)[C@H](CCC(=O)O)NC(=O)[C@@H](NC(=O)[C@H](CCC(=O)O)NC(=O)[C@H](CC(=O)O)NC(=O)[C@@H](N)CC(N)=O)CSSC[C@H](NC(=O)[C@H](C)NC(=O)[C@H](C(C)C)NC(=O)[C@H](CC(N)=O)NC(=O)[C@H](C(C)C)NC2=O)C(=O)N[C@@H]([C@@H](C)O)C(=O)NCC(=O)N1)C(=O)O [SP-304, Asn^1-Asp^2-Glu^3-Cys^4-Glu^5-Leu^6-Cys^7-Val^8-Asn^9-Val^10-Ala^11-Cys^12-Thr^13-Gly^14-Cys^15-Leu^16] (H-NDECELCVNVACTGCL-OH; disulfide 4-12, 7-15; N-terminus assumed) |  | inhibited | inhibited | cGMP production by CaCo-2 cells in response to stimulation (GC-C receptors; serum free DMEM, 30 minutes, cGMP by ELISA): produced cGMP in response to stimulation; inhibition in absorption of ^3H-taurocholate (FIG. 6), SP-304 alone (CaCo-2 cells; SP-304 0.1 uM alone): did not produce much inhibition; inhibition of ^3H-taurocholate absorption (FIG. 6), SP-304 in combination with ZAP (CaCo-2 cells; SP-304 0.1 uM in combination with ZAP 250 uM, compared with SP-304 alone): greater effect on inhibition
4 | CCCOc1ccccc1-c1nc2nn[nH]c2c(=O)[nH]1 [ZAP, zaprinast] | synergistic effects |  |  | cGMP production among the PDE inhibitors combined with SP-304 (GC-C receptors; comparison of IBMX, SS and ZAP): maximum production of cGMP
5 | CC1=C(CC(=O)O)c2cc(F)ccc2/C1=C\c1ccc(S(C)(=O)=O)cc1 [SS, sulindac sulfone] | synergistic effects |  |  | 
